Results taken from US11186566B2, “Modulator of cystic fibrosis transmembrane conductance regulator, pharmaceutical compositions, methods of treatment, and process for making the modulator” (Vertex Pharmaceuticals Incorporated, priority 2016, dated 2021).

Target: F508del-CFTR (Homo sapiens (Human), UniProt P13569, DEL508-508)
Experiment: Membrane potential optical (fluorescent voltage sensing dye, FLIPR III) HTS assay for F508del-CFTR modulators
Format: cell-based
Settings: F508del NIH 3T3 cells, assay 5A-A1; read-out: CFTRdF508 EC50
Source text: Membrane Potential Optical Methods for Assaying Properties of F508del-CFTR Modulators
The assay utilizes fluorescent voltage sensing dyes to measure changes in membrane potential using a fluorescent plate reader (e.g., FLIPR III, Molecular Devices, Inc.) as a readout for increase in functional F508del in NIH 3T3 cells.
5A-A1. Identification of F508Del-CFTR Modulators
To identify modulators of F508del, a fluorescence based HTS assay format was developed. This HTS assay utilizes fluorescent voltage sensing dyes to measure changes in membrane potential on the FLIPR III as a measurement for increase in gating (conductance) of F508del NIH 3T3 cells.
(in mM) NaCl 160, KCl 4.5, CaCl2 2, MgCl2 1, HEPES 10, pH 7.4 with NaOH, Glucose 10.
Chloride salts in Bath Solution #1 (above) are substituted with gluconate salts.
NIH3T3 mouse fibroblasts stably expressing F508del are used for optical measurements of membrane potential. The cells are maintained at 37° C. in 5% CO2 and 90% humidity in Dulbecco's modified Eagle's medium supplemented with 2 mM glutamine, 10% fetal bovine serum, 1×NEAA, β-ME, 1×pen/strep, and 25 mM HEPES in 175 cm^2 culture flasks. For all optical assays, the cells were seeded at 12,000 cells/well in 384-well matrigel-coated plates and cultured for 18-24 hrs at 37° C. for the potentiator assay. For the correction assays, the cells are cultured at 37° C. with and without compounds for 18-24 hours.

Sequence of F508del-CFTR (P13569 other isoform, or with tags, fused parts or gaps del F508-F508): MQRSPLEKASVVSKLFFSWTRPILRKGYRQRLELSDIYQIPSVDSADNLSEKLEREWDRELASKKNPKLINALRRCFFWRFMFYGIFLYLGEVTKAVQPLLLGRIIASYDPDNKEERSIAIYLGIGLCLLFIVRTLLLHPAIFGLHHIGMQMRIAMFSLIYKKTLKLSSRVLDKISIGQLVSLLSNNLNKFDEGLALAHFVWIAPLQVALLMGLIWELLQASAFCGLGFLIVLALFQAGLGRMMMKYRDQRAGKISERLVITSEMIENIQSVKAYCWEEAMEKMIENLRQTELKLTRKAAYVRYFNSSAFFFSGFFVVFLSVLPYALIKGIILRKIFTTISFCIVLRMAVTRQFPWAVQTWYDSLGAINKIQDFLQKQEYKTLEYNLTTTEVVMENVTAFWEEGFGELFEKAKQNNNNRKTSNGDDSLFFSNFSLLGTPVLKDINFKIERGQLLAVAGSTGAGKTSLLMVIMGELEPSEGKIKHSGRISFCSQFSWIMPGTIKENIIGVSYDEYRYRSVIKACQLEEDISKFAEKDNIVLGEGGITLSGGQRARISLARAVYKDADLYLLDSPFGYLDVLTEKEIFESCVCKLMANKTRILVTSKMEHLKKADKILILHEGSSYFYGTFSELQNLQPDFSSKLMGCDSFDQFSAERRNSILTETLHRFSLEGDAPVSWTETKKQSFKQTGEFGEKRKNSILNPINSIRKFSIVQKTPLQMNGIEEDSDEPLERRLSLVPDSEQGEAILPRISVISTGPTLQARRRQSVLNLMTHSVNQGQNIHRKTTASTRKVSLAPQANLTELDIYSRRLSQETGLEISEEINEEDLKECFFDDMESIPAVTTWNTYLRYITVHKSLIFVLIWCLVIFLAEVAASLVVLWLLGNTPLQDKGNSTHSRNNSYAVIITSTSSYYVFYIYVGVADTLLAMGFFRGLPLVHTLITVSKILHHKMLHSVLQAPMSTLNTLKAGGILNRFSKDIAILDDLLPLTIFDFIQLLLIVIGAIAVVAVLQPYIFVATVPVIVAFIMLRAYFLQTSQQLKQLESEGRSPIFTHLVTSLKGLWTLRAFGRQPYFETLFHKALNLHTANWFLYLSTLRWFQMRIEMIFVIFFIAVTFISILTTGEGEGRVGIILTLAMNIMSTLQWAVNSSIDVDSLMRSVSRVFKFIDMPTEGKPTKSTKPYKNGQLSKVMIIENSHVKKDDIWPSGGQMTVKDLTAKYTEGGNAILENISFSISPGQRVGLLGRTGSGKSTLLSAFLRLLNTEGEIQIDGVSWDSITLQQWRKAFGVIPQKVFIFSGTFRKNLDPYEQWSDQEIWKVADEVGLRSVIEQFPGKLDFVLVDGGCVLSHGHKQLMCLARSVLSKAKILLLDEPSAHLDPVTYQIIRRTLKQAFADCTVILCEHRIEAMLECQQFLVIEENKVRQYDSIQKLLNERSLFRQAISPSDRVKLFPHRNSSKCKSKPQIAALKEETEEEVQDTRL

Row | SMILES | EC50 [nM]
1 | CC1(C)CC(CO)CN1c1nc(-n2ccc(OCCC3(C(F)(F)F)CC3)n2)ccc1C(=O)NS(=O)(=O)c1ccccc1 (stereo not shown) [Compound 9, N-(Benzenesulfonyl)-2-[4-(hydroxymethyl)-2,2-dimethyl-pyrrolidin-1-yl]-6-[3-[2-[1-(trifluoromethyl)cyclopropyl]ethoxy]pyrazol-1-yl]pyridine-3-carboxamide] | 100 to 1000
2 | COc1cc(S(=O)(=O)NC(=O)c2ccc(-n3ccc(OCCC4(C(F)(F)F)CC4)n3)nc2N2C[C@@H](C)CC2(C)C)ccc1O [Compound 3, (S)—N-((4-Hydroxy-3-methoxyphenyl)sulfonyl)-6-(3-(2-(1-(trifluoromethyl)cyclopropyl)ethoxy)-1H-pyrazol-1-yl)-2-(2,2,4-trimethylpyrrolidin-1-yl)nicotinamide] | < 100
3 | COc1ccc(S(=O)(=O)NC(=O)c2ccc(-n3ccc(OCC4(C(F)(F)F)CC4)n3)nc2N2C[C@@H](C)CC2(C)C)cc1 [Compound 54, N-(4-methoxyphenyl)sulfonyl-6-[3-[[l-(trifluoromethyl)cyclopropyl]methoxy]pyrazol-1-yl]-2-[(4S)-2,2,4-trimethylpyrrolidin-1-yl]pyridine-3-carboxamide] | < 100
4 | C[C@@H]1CN(c2nc(-n3ccc(OCCC4(C(F)(F)F)CC4)n3)ccc2C(=O)NS(=O)(=O)c2cccc(O)c2)C(C)(C)C1 [Compound 35, N-(3-Hydroxyphenyl)sulfonyl-6-[3-[2-[1-(trifluoromethyl)cyclopropyl]ethoxy]pyrazol-1-yl]-2-[(4S)-2,2,4-trimethylpyrrolidin-1-yl]pyridine-3-carboxamide] | < 100
5 | CC1(C)CN(c2nc(-n3ccc(OCC4(C(F)(F)F)CC4)n3)ccc2C(=O)NS(=O)(=O)c2ccccc2)C(C)(C)C1 [Compound 56, N-(Benzenesulfonyl)-2-(2,2,4,4-tetramethylpyrrolidin-1-yl)-6-[3-[[1-(trifluoromethyl)cyclopropyl]methoxy]pyrazol-1-yl]pyridine-3-carboxamide] | 100 to 1000
6 | C[C@@H]1CN(c2nc(-n3ccc(OC4CC4)n3)ccc2C(=O)NS(=O)(=O)c2ccccc2)C(C)(C)C1 [Compound 48, N-(Benzenesulfonyl)-6-[3-(cyclopropoxy)pyrazol-1-yl]-2-[(4S)-2,2,4-trimethylpyrrolidin-1-yl]pyridine-3-carboxamide] | > 1000
7 | C[C@@H]1CN(c2nc(-n3ccc(O[C@@H]4C[C@@H]4C(F)(F)F)n3)ccc2C(=O)NS(=O)(=O)c2ccccc2)C(C)(C)C1 (racemic) [Compound 18, N-(Benzenesulfonyl)-6-[3-[(cis)-2-(trifluoromethyl)cyclopropoxy]pyrazol-1-yl]-2-[(4S)-2,2,4-trimethylpyrrolidin-1-yl]pyridine-3-carboxamide] | 100 to 1000
8 | C[C@@H]1CN(c2nc(-n3ccc(OCC45CC(F)(C4)C5)n3)ccc2C(=O)NS(=O)(=O)c2ccccc2)C(C)(C)C1 [Compound 63, N-(Benzenesulfonyl)-6-[3-[(3-fluoro-1-bicyclo[1.1.1]pentanyl)methoxy]pyrazol-1-yl]-2-[(4S)-2,2,4-trimethylpyrrolidin-1-yl]pyridine-3-carboxamide] | 100 to 1000
9 | C[C@H]1CN(c2nc(-n3ccc(OCCC4(C(F)(F)F)CC4)n3)ccc2C(=O)NS(=O)(=O)c2ccccc2)C(C)(C)C1 [Compound 2, (R)—N-(Phenylsulfonyl)-6-(3-(2-(1-(trifluoromethyl)cyclopropyl)ethoxy)-1H-pyrazol-1-yl)-2-(2,2,4-trimethylpyrrolidin-1-yl)nicotinamide] | 100 to 1000
10 | Cc1ccccc1S(=O)(=O)NC(=O)c1ccc(-n2ccc(OCC3C4(CC4)C34CC4)n2)nc1N1C[C@@H](C)CC1(C)C [Compound 8, 6-[3-(Dispiro[2.0.2^4.1^3]heptan-7-ylmethoxy)pyrazol-1-yl]-N-(o-tolylsulfonyl)-2-[(4S)-2,2,4-trimethylpyrrolidin-1-yl]pyridine-3-carboxamide] | < 100
11 | C[C@@H]1CN(c2nc(-n3ccc(OCC4(C(F)(F)F)CC4)n3)ccc2C(=O)NS(=N)(=O)c2ccccc2)C(C)(C)C1 (single isomer, unassigned) [Compound 46] | < 100
12 | C[C@@H]1CN(c2nc(-n3ccc(OCC4(C(F)(F)F)CC4)n3)ccc2C(=O)NS(=O)(=O)c2ccccc2C#N)C(C)(C)C1 [Compound 26, N-(2-Cyanophenyl)sulfonyl-6-[3-[[1-(trifluoromethyl)cyclopropyl]methoxy]pyrazol-1-yl]-2-[(4S)-2,2,4-trimethylpyrrolidin-1-yl]pyridine-3-carboxamide] | > 1000
13 | C[C@@H]1CN(c2nc(-n3ccc(OCC(O)C4(C(F)(F)F)CC4)n3)ccc2C(=O)NS(=O)(=O)c2ccccc2)C(C)(C)C1 (stereo partly drawn) [Compound 38, N-(Benzenesulfonyl)-6-[3-[2-hydroxy-2-[1-(trifluoromethyl)cyclopropyl]ethoxy]pyrazol-1-yl]-2-[(4S)-2,2,4-trimethylpyrrolidin-1-yl]pyridine-3-carboxamide] | 100 to 1000
14 | C[C@@H]1CN(c2nc(-n3ccc(O[C@@H]4C[C@H]4C(F)(F)F)n3)ccc2C(=O)NS(=O)(=O)c2ccccc2)C(C)(C)C1 (racemic) [Compound 19, N-(Benzenesulfonyl)-6-[3-[(trans)-2-(trifluoromethyl)cyclopropoxy]pyrazol-1-yl]-2-[(4S)-2,2,4-trimethylpyrrolidin-1-yl]pyridine-3-carboxamide] | 100 to 1000
15 | [2H]C([2H])([2H])[C@@H]1CN(c2nc(-n3ccc(OCCC4(C(F)(F)F)CC4)n3)ccc2C(=O)NS(=O)(=O)c2ccccc2)C(C)(C)C1([2H])[2H] [Compound 17, N-(Benzenesulfonyl)-2-[(4S)-3,3-dideuterio-2,2-dimethyl-4-(trideuteriomethyl)pyrrolidin-1-yl]-6-[3-[2-[1-(trifluoromethyl)cyclopropyl]ethoxy]pyrazol-1-yl]pyridine-3-carboxamide] | < 100
16 | C[C@@H]1CN(c2nc(-n3ccc(OCC4(C(F)(F)F)CC4)n3)ccc2C(=O)NS(=O)(=O)c2cccc(O)c2)C(C)(C)C1 [Compound 21, N-(3-Hydroxyphenyl)sulfonyl-6-[3-[[1-(trifluoromethyl)cyclopropyl]methoxy]pyrazol-1-yl]-2-[(4S)-2,2,4-trimethylpyrrolidin-1-yl]pyridine-3-carboxamide] | < 100
17 | C[C@@H]1CN(c2nc(-n3ccc(OCC4(C(F)(F)F)CC4)n3)ccc2C(=O)NS(=O)(=O)c2ccc(F)cc2)C(C)(C)C1 [Compound 52, N-(4-fluorophenyl)sulfonyl-6-[3-[[1-(trifluoromethyl)cyclopropyl]methoxy]pyrazol-1-yl]-2-[(4S)-2,2,4-trimethylpyrrolidin-1-yl]pyridine-3-carboxamide] | < 100
18 | C[C@@H]1CN(c2nc(-n3ccc(OCC4CC45CC5)n3)ccc2C(=O)NS(=O)(=O)c2ccccc2)C(C)(C)C1 (stereo partly drawn) [Compound 60, N-(Benzenesulfonyl)-6-[3-(spiro[2.2]pentan-2-ylmethoxy)pyrazol-1-yl]-2-[(4S)-2,2,4-trimethylpyrrolidin-1-yl]pyridine-3-carboxamide] | 100 to 1000
19 | COc1cc(C)ccc1S(=O)(=O)NC(=O)c1ccc(-n2ccc(OCC3(C(F)(F)F)CC3)n2)nc1N1C[C@@H](C)CC1(C)C [Compound 12, N-(2-Methoxy-4-methyl-phenyl)sulfonyl-6-[3-[[1-(trifluoromethyl)cyclopropyl]methoxy]pyrazol-1-yl]-2-[(4S)-2,2,4-trimethylpyrrolidin-1-yl]pyridine-3-carboxamide] | < 100
20 | C[C@@H]1CN(c2nc(-n3ccc(O)n3)ccc2C(=O)NS(=O)(=O)c2ccccc2)C(C)(C)C1 [Compound 65, N-(benzenesulfonyl)-6-(3-hydroxypyrazol-1-yl)-2-[(4S)-2,2,4-trimethylpyrrolidin-1-yl]pyridine-3-carboxamide] | > 1000
21 | C[C@@H]1CN(c2nc(-n3ccc(OCCC4(C(F)(F)F)CC4)n3)ccc2C(=O)NS(=O)(=O)c2ccccc2O)C(C)(C)C1 [Compound 34, N-(2-hydroxyphenyl)sulfonyl-6-[3-[2-[1-(trifluoromethyl)cyclopropyl]ethoxy]pyrazol-1-yl]-2-[(4S)-2,2,4-trimethylpyrrolidin-1-yl]pyridine-3-carboxamide] | < 100
22 | C[C@@H]1CN(c2nc(-n3ccc(OCC4(C(F)(F)F)CC4)n3)ccc2C(=O)NS(=O)(=O)c2cccc(C#N)c2)C(C)(C)C1 [Compound 25, N-(3-Cyanophenyl)sulfonyl-6-[3-[[1-(trifluoromethyl)cyclopropyl]methoxy]pyrazol-1-yl]-2-[(4S)-2,2,4-trimethylpyrrolidin-1-yl]pyridine-3-carboxamide] | < 100
23 | C[C@@H]1CN(c2nc(-n3ccc(OCC4(C(F)(F)F)CCC4)n3)ccc2C(=O)NS(=O)(=O)c2cccc(F)c2)C(C)(C)C1 [Compound 59, N-(3-Fluorophenyl)sulfonyl-6-[3-[[1-(trifluoromethyl)cyclobutyl]methoxy]pyrazol-1-yl]-2-[(4S)-2,2,4-trimethylpyrrolidin-1-yl]pyridine-3-carboxamide] | < 100

Same assay, conditions: Table 7, Compound 1 and metabolites; read-out: CFTRdF508 EC50

Row | SMILES | EC50 [nM]
24 | C[C@@H]1CN(c2nc(-n3ccc(OCC(O)C4(C(F)(F)F)CC4)n3)ccc2C(=O)NS(=O)(=O)c2ccccc2)C(C)(C)C1 (stereo partly drawn) [Compound 38, N-(Benzenesulfonyl)-6-[3-[2-hydroxy-2-[1-(trifluoromethyl)cyclopropyl]ethoxy]pyrazol-1-yl]-2-[(4S)-2,2,4-trimethylpyrrolidin-1-yl]pyridine-3-carboxamide] | 240
25 | C[C@@H]1CN(c2nc(-n3ccc(OCCC4(C(F)(F)F)CC4)n3)ccc2C(=O)NS(=O)(=O)c2ccccc2O)C(C)(C)C1 [Compound 34, N-(2-hydroxyphenyl)sulfonyl-6-[3-[2-[1-(trifluoromethyl)cyclopropyl]ethoxy]pyrazol-1-yl]-2-[(4S)-2,2,4-trimethylpyrrolidin-1-yl]pyridine-3-carboxamide] | 90
